We go through 19 compounds from US20230091225A1, “Bifunctional chimeric heterocyclic compounds for targeted degradation of androgen receptors and use thereof” (HINOVA PHARMACEUTICALS INC., priority 2019, published 2023).

SMILES strings stand for the structures. Like-named read-outs stand apart in the source and are kept apart here.

This experiment concerns the target T1, androgen receptor (AR) (Homo sapiens, UniProt P10275).
T1 sequence (P10275 1-920): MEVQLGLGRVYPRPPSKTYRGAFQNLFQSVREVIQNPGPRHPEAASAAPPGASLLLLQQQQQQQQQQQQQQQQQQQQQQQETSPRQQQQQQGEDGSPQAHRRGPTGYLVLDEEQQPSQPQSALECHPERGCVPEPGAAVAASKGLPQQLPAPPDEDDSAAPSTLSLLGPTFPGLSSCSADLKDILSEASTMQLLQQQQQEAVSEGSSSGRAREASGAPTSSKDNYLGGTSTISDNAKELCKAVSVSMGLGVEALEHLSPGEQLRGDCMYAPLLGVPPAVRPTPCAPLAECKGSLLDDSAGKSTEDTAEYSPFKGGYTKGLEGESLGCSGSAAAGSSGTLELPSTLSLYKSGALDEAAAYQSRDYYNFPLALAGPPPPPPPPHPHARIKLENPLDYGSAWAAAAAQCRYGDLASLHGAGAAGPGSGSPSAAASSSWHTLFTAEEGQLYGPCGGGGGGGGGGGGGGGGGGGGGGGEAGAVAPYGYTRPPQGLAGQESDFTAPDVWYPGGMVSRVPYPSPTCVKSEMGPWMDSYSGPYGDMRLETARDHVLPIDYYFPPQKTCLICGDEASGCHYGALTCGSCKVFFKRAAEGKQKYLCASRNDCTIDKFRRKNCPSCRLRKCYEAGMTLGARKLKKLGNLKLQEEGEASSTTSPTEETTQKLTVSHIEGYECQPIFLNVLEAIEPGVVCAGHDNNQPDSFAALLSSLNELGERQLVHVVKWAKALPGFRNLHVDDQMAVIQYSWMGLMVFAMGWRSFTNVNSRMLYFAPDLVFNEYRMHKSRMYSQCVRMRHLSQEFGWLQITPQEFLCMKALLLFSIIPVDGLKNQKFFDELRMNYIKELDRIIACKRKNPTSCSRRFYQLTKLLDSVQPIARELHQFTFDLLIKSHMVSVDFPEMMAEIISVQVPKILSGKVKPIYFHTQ
Nature of the experiment: Degradation of androgen receptor (AR) protein in VCaP cells by ELISA. Format: cell-based. The following applies: for DC50: read-out: DC50; for Dmax: VCaP. For orientation: An ELISA detects its analyte on a solid surface through an enzyme-linked reagent.

Setting [1] is: AR degradation, VCaP cells, 16 h, ELISA, Table 3-1.
Setting [2] is: AR degradation, VCaP cells, 16 h, ELISA, Table 3-1, read-out: Dmax (%).
Where [3] appears, read: AR degradation, VCaP cells, 16 h, ELISA, Table 3-2.

The term DC50 denotes the concentration at which degradation of the target reaches its halfway point. For orientation: Dmax means the greatest extent of degradation seen.

The compound `N#Cc1ccc(O[C@H]2CC[C@H](NC(=O)c3nnc(N4CCC(N5CCC6(CC5)CN(c5cc7c(cc5F)C(=O)N(C5CCC(=O)NC5=O)C7=O)C6)CC4)s3)CC2)cc1Cl` (some centres unmarked) [Compound 83] returned a Dmax below 40%. Further, the DC50 under setting [1] was above 300 nM.
In the case of `N#Cc1ccc(OC2CCC(NC(=O)c3ncn(C4CCC(CN5CCC6(CC5)CN(c5ccc7c(c5)C(=O)N(C5CCC(=O)NC5=O)C7=O)C6)CC4)n3)CC2)cc1Cl` [Compound 84, N-((1r,4R)-4-(3-chloro-4-cyanophenoxy)cyclohexyl)-1-(1r,4R)-4-((2-(2-(2,6-dioxopiperidin-3-yl)-1,3-dioxoisoindolin-5-yl)-2,7-diazaspiro[3.5]nonan-7-yl)methyl)cyclohexyl)-1H-1,2,4-triazole-3-carboxamide], under setting [1], the “Dmax (%)” value was “++++ (>80%)” and the DC50 was below 10 nM.
For `N#Cc1ccc(OC2CCC(NC(=O)c3ncn(C4CCC(CN5CCC6(CC5)CN(c5cc7c(cc5F)C(=O)N(C5CCC(=O)NC5=O)C7=O)C6)CC4)n3)CC2)cc1Cl` [Compound 85, N-((1r,4R)-4-(3-chloro-4-cyanophenoxy)cyclohexyl)-1-((1r,4R)-4-((2-(2,6-dioxopiperidin-3-yl)-6-fluoro-1,3-dioxoisoindolin-5-yl)-2,7-diazaspiro[3.5]nonan-7-yl)methyl)cyclohexyl)-1H-1,2,4-triazole-3-formamide], in that order: “++++ (>80%)” and 10 to 100 nM.
For `N#Cc1ccc(O[C@H]2CC[C@H](NC(=O)c3ncnn3[C@H]3CC[C@H](CN4CCC5(CC4)CN(c4ccc6c(c4)C(=O)N(C4CCC(=O)NC4=O)C6=O)C5)CC3)CC2)cc1Cl` (stereo partly drawn) [Compound 86, N-((1r,4R)-4-(3-chloro-4-cyanophenoxy)cyclohexyl)-1-((1r,4R)-4-((2-(2-(2,6-dioxopiperidin-3-yl)-1,3-dioxoisoindolin-5-yl)-2,7-diazaspiro[3.5]nonan-7-yl)methyl)cyclohexyl)-1H-1,2,4-triazole-5-formamide], the DC50 under setting [1] was in the range of 100 to 300 nM. Under setting [2], the Dmax lay in the range of 60 to 80%.
As for `N#Cc1ccc(O[C@H]2CC[C@H](NC(=O)c3ncnn3[C@H]3CC[C@H](CN4CCC5(CC4)CN(c4cc6c(cc4F)C(=O)N(C4CCC(=O)NC4=O)C6=O)C5)CC3)CC2)cc1Cl` (some centres unmarked) [Compound 87], under setting [1], the DC50 fell in the range of 100 to 300 nM. Also, under setting [2], the greatest degradation seen (Dmax) is 40 to 60%.
For the compound `N#Cc1ccc(O[C@H]2CC[C@H](NC(=O)c3ccc(N4CC5(CN(C[C@@H]6[C@H]7CN(c8cc9c(cc8F)C(=O)N(C8CCC(=O)NC8=O)C9=O)C[C@@H]67)C5)C4)nn3)CC2)cc1Cl` (some centres unmarked) [Compound 92], the DC50 under setting [1] was below 10 nM. The Dmax under setting [2] is above 80%.
For `N#Cc1ccc(O[C@H]2CC[C@H](NC(=O)c3ccc(N4CCCN(C[C@@H]5[C@H]6CN(c7cc8c(cc7F)C(=O)N(C7CCC(=O)NC7=O)C8=O)C[C@@H]56)CC4)nn3)CC2)cc1Cl` (some centres unmarked) [Compound 93], in that order: 10 to 100 nM and 60 to 80%.
For `N#Cc1ccc(OC2CCC(NC(=O)c3cnc(N4CCN(CC5[C@H]6CN(c7cc8c(cc7F)C(=O)N(C7CCC(=O)NC7=O)C8=O)C[C@@H]56)CC4)cn3)CC2)cc1C(F)(F)F` (some centres unmarked) [Compound 94], the “Dmax (%)” value is recorded as “+++ (key: ++++: >80%; +++: 80%-60%; ++: 60%-40%; +: <40%)” and the DC50 lay in the range of 10 to 100 nM.
The like results for `N#Cc1ccc(OC2CCC(NC(=O)c3ccc(N4CCN(CC5[C@H]6CN(c7cc8c(cc7F)C(=O)N(C7CCC(=O)NC7=O)C8=O)C[C@@H]56)CC4)nn3)CC2)cc1C(F)(F)F` (some centres unmarked) [Compound 95] were, in that order, “+++ (key: ++++: >80%; +++: 80%-60%; ++: 60%-40%; +: <40%)” and 10 to 100 nM.
As for `N#Cc1ccc(O[C@H]2CC[C@H](NC(=O)c3cnc(N4CC5(CCN(CC6CCN(c7cc8c(cc7F)C(=O)N(C7CCC(=O)NC7=O)C8=O)CC6)C5)C4)cn3)CC2)cc1Cl` (some centres unmarked) [Compound 96], under setting [1], the DC50 is below 10 nM. Besides, under setting [2], the Dmax was above 80%.
`N#Cc1ccc(O[C@H]2CC[C@H](NC(=O)c3ccc(N4CC5(CCN(C6CCN(c7cc8c(cc7F)C(=O)N(C7CCC(=O)NC7=O)C8=O)CC6)CC5)C4)nn3)CC2)cc1Cl` (some centres unmarked) [Compound 97, N-((1r,4r)-4-(3-chloro-4-cyanophenoxy)cyclohexyl)-6-(7-(1-(2-(2,6-dioxopiperidin-3-yl)-6-fluoro-1,3-dioxoisoindolin-5-yl)piperidine-4-yl)-2,7-diazaspiro[3.5]nonan-2-yl)pyridazine-3-carboxamide] showed a maximal degradation (Dmax) above 80%. Besides, under setting [1], the 50% degradation concentration (DC50) was below 10 nM.
Compound `N#Cc1ccc(O[C@H]2CC[C@H](NC(=O)c3ncc(N4CC5(CCN(C6CCN(c7ccc8c(c7)C(=O)N(C7CCC(=O)NC7=O)C8=O)CC6)CC5)C4)cn3)CC2)cc1Cl` (some centres unmarked) [Compound 106, N-((1r,4r)-4-(3-chloro-4-cyanophenoxy)cyclohexyl)-5-(7-(1-(2-(2,6-dioxopiperidin-3-yl)-1,3-dioxoisoindolin-5-yl)piperidine-4-yl)-2,7-diazaspiro[3.5]nonan-2-yl)pyrimidine-2-carboxamide] had a Dmax below 40%. Moreover, under setting [3], the DC50 was above 300 nM.
With `N#Cc1ccc(O[C@H]2CC[C@H](NC(=O)c3nnc(N4CC5(CCN(CC6CCN(c7cc8c(cc7F)C(=O)N(C7CCC(=O)NC7=O)C8=O)CC6)CC5)C4)s3)CC2)cc1Cl` (some centres unmarked) [Compound 107, N-((1r,4r)-4-(3-chloro-4-cyanophenoxy)cyclohexyl)-5-(7-((1-(2-(2,6-dioxopiperidin-3-yl)-6-fluoro-1,3-dioxoisoindolin-5-yl)piperidine-4-yl)methyl)-2,7-diazaspiro[3.5]nonan-2-yl)-1,3,4-thiadiazole-2-carboxamide], the DC50 under setting [3] is below 10 nM. Further, for the setting “AR degradation, VCaP cells, 16 h, ELISA, Table 3-2, read-out: Dmax (%)”, the Dmax is above 80%.
On to `N#Cc1ccc(OC2CCC(NC(=O)c3cn(C4CCC(CN5CCC6(CC5)CN(c5cc7c(cc5F)C(=O)N(C5CCC(=O)NC5=O)C7=O)C6)CC4)cn3)CC2)cc1Cl` [Compound 112, N-((1r,4R)-4-(3-chloro-4-cyanophenoxy)cyclohexyl)-1-((1r,4R)-4-((2-(2,6-dioxopiperidin-3-yl)-6-fluoro-1,3-dioxoisoindolin-5-yl)-2,7-diazaspiro[3.5]nonan-7-yl)methyl)cyclohexyl)-1H-imidazole-4-carboxamide], for which the “Dmax (%)” value was “+ (key: ++++: >80%; +++: 80%-60%; ++: 60%-40%; +: <40%)” and the DC50 is above 300 nM.
`N#Cc1ccc(OC2CCC(NC(=O)c3cn(C4CCC(CN5CCC6(CC5)CN(c5ccc7c(c5)C(=O)N(C5CCC(=O)NC5=O)C7=O)C6)CC4)cn3)CC2)cc1Cl` [Compound 113, N-((1r,4R)-4-(3-chloro-4-cyanophenoxy)cyclohexyl)-1-((1r,4R)-4-((2-(2-(2,6-dioxopiperidin-3-yl)-1,3-dioxoisoindolin-5-yl)-2,7-diazaspiro[3.5]nonan-7-yl)methyl)cyclohexyl)-1H-imidazole-4-formamide]: the “Dmax (%)” value was “++++ (key: A: >80%; B: 79%-50%; C: 49%-25%; D: <25%)” and the DC50 was below 10 nM.
With `N#Cc1ccc(O[C@H]2CC[C@H](NC(=O)c3cn([C@H]4CC[C@H](CN5CCC6(CC5)CN(c5ccc7c(c5)C(=O)N(C5CCC(=O)NC5=O)C7=O)C6)CC4)nn3)CC2)cc1Cl` (stereo partly drawn) [Compound 114, N-((1r,4R)-4-(3-chloro-4-cyanophenoxy)cyclohexyl)-1-((1r,4R)-4-((2-(2-(2,6-dioxopiperidin-3-yl)-1,3-dioxoisoindolin-5-yl)-2,7-diazaspiro[3.5]nonan-7-yl)methyl)cyclohexyl)-1H-1,2,3-triazole-4-carboxamide], the DC50 under setting [1] is below 10 nM. Moreover, the Dmax under setting [2] is above 80%.
For `N#Cc1ccc(O[C@H]2CC[C@H](NC(=O)c3cn([C@H]4CC[C@H](CN5CCC6(CC5)CN(c5cc7c(cc5F)C(=O)N(C5CCC(=O)NC5=O)C7=O)C6)CC4)nn3)CC2)cc1Cl` (some centres unmarked) [Compound 115], in that order: below 10 nM and above 80%.
In the case of `N#Cc1ccc(O[C@H]2CC[C@H](NC(=O)c3cnn([C@H]4CC[C@H](CN5CCC6(CC5)CN(c5ccc7c(c5)C(=O)N(C5CCC(=O)NC5=O)C7=O)C6)CC4)n3)CC2)cc1Cl` (stereo partly drawn) [Compound 116, N-((1r,4R)-4-(3-chloro-4-cyanophenoxy)cyclohexyl)-2-((1r,4R)-4-((2-(2-(2,6-dioxopiperidin-3-yl)-1,3-dioxoisoindolin-5-yl)-2,7-diazaspiro[3.5]nonan-7-yl)methyl)cyclohexyl)-2H-1,2,3-triazole-4-carboxamide], the DC50 under setting [1] was below 10 nM. Besides, the Dmax under setting [2] was above 80%.
Regarding `N#Cc1ccc(O[C@H]2CC[C@H](NC(=O)c3cnn([C@H]4CC[C@H](CN5CCC6(CC5)CN(c5cc7c(cc5F)C(=O)N(C5CCC(=O)NC5=O)C7=O)C6)CC4)n3)CC2)cc1Cl` (some centres unmarked) [Compound 117], the DC50 under setting [1] fell in the range of 100 to 300 nM. In addition, under setting [2], the Dmax was above 80%.
